Experimental data published in US9617330B2, “Chemorepulsion of cells” (Celtaxsys, Inc., priority 2006, dated 2017).
Like-named read-outs stand apart in the source and are kept apart here.

Legend:
B-cell = test: Trans-well migration assay (Example 1), net migratory response; settings: net observed response
Procedure: Prior to beginning the assay 0.5% Fetal Calf Serum (FCS) in Iscove's Modified Dulbecco's Medium (IMDM) is prepared and stored on ice (Assay Medium). Migratory cells at a concentration of 2×10^7 cells/ml are suspended in Assay Medium. T-cells isolated from donor blood or buffy coats are allowed to rest overnight in Assay Medium at 37° C. in 5% CO2. Neutrophils, monocytes and B cells are utilized as soon as they are purified from donor blood or other source of human origin. Four serial (10×) dilutions of the ligand are then prepared in Assay Medium (normally 10 μg/ml to 0.01 μg/ml).
Plates are removed from the packaging, leaving the membrane behind and intact. The membrane is set aside. Into each well is pipetted 31 μl of solution. For media controls and fugetaxis (chemorepellent) samples, Assay Medium is used. For chemoattraction samples, the appropriate dilution of agent in assay medium is used.
Using a sterile needle, all small bubbles present in each well are popped and the membrane is carefully placed onto the plate, starting at one side and slowly lowering the other edge onto the plate.
Then 29 μl is pipetted into each circle imprinted on the polycarbonate or polyester membrane. For media controls and chemoattraction samples, Assay Medium is used. For fugetaxis (chemorepellent) samples, the appropriate dilution of ligand in assay medium is used.
To each 29 uL aliquot above is added 2 μl of cells (40,000 cells). It is important to ensure that before beginning the cells are well suspended and that they are mixed. This mixing can be accomplished by agitating the tube between each addition.
The plate is then covered with the supplied lid and incubated 1-3 hours in a humidified incubator at 37° C. in 5% CO2. Following the incubation period, the liquid from the top of the plate is removed with a tissue or similar blotting material (e.g. a Kimwipe). The membrane is carefully removed from the top of the plate and discarded. […] Using a multichannel pipettor, each well of the microplate is rinsed with 25 μl Phosphate Buffered Saline (Mediatech #21-040-CV) and transferred to the same wells in the white microplate. Using a multichannel pipettor, 50 μl CellTiter-Glo Luminescent Cell Viability Assay (Promega #G7572) is added to each well and mixed.
The plate is read using the Perkin Elmer Victor^3V plate reader using the Large Aperture Luminescence setting at 8 mm height above the plate with a dwell time of 1 s to quantify the number of migrated cells.
The results reported reflect the net observed migratory response of the cells to the ligand and are not based on the definition of unimodal fugetaxins.

Neutrophils = test: High throughput transmigration assay (Example 9), chemorepulsion; type: cell-based, human
Monocyte = test: Trans-well migration assay (Example 1), net migratory response
[1] = system: Eo-HL60 (HL-60 clone 15 differentiated to eosinophil-like phenotype); test: as above; type: cell-based, human; settings: net observed response
[2] = Neutrophils, mean of three donors at concentration of highest activity, range 0.00125-1.25 μM
[3] = neutrophils, 0.00125 μM, one donor, triplicate, ± SD
[4] = neutrophils, 0.0125 μM, one donor, triplicate, ± SD
[5] = neutrophils, 0.125 μM, one donor, triplicate, ± SD
[6] = neutrophils, 1.25 μM, one donor, triplicate, ± SD
[7] = Monocyte, net observed response

COc1cc(CNC(=O)CCCC/C=C/C(C)C)ccc1O [Capsaicin, reference compound]
Migratory Response (B-cell): chemorepulsion

CC[C@H]1OC(=O)[C@H](C)[C@@H](O[C@H]2C[C@@](C)(OC)[C@@H](O)[C@H](C)O2)[C@H](C)[C@@H](O[C@@H]2O[C@H](C)C[C@H](N(C)C)[C@H]2O)[C@](C)(O)C[C@@H](C)C(=O)[C@H](C)[C@@H](O)[C@]1(C)O [Erythromycin, reference compound]
Repellent Index (Neutrophils; [2]): 4.8
Repellent Index (Neutrophils; [3]): 1.75 ± 0.40
Repellent Index (Neutrophils; [4]): 2.29 ± 1.61
Repellent Index (Neutrophils; [5]): 3.29 ± 1.11
Repellent Index (Neutrophils; [6]): 6.12 ± 2.53

O=c1c(-c2ccc(O)cc2)coc2cc(O)cc(O)c12 [Genistein, reference compound]
Migratory Response (B-cell): chemorepulsion
Repellent Index (Neutrophils; [2]): 1.3

CC(C)=CCC[C@]1(C)[C@@H](CC=C(C)C)C[C@@]2(CC=C(C)C)C(=O)[C@]1(C(=O)C(C)C)C(=O)C(CC=C(C)C)=C2O [Hyperforin, reference compound]
Migratory Response (Monocyte): chemorepulsion

CC(=O)O[C@H]1C(=O)[C@@]2(C)[C@H]([C@H](OC(=O)c3ccccc3)[C@]3(O)C[C@H](OC(=O)[C@H](O)[C@@H](NC(=O)c4ccccc4)c4ccccc4)C(C)=C1C3(C)C)[C@]1(OC(C)=O)CO[C@@H]1C[C@@H]2O [Paclitaxel, reference compound]
Migratory Response [1]: chemorepulsion
Migratory Response (Monocyte; [7]): chemorepulsion

O.O.O=c1c(O)c(-c2ccc(O)c(O)c2)oc2cc(O)cc(O)c12 [Quercetin dihydrate, reference compound]
Migratory Response (B-cell): chemorepulsion
Migratory Response [1]: chemorepulsion

Oc1ccc(C=Cc2cc(O)cc(O)c2)cc1 [Resveratrol, reference compound]
Migratory Response (B-cell): chemorepulsion
Repellent Index (Neutrophils; [2]): 1.4
Repellent Index (Neutrophils; [3]): 2.65 ± 0.29
Repellent Index (Neutrophils; [4]): 2.80 ± 0.32
Repellent Index (Neutrophils; [5]): 2.05 ± 0.28
Repellent Index (Neutrophils; [6]): 1.32 ± 0.50
Migratory Response [1]: chemorepulsion

(−)-Epigallocatechin Gallate [EGCG ((−)-Epigallocatechin Gallate), reference compound]
Migratory Response (B-cell): chemorepulsion

Antithrombin III
Repellent Index (Neutrophils; Neutrophils, mean of three donors at concentration of highest activity, range 0.000573-0.573 μM): 2.2
Repellent Index (Neutrophils; neutrophils, 0.000573 μM, one donor, triplicate, ± SD): 1.08 ± 0.36
Repellent Index (Neutrophils; neutrophils, 0.00573 μM, one donor, triplicate, ± SD): 1.63 ± 0.67
Repellent Index (Neutrophils; neutrophils, 0.0573 μM, one donor, triplicate, ± SD): 3.17 ± 0.98
Repellent Index (Neutrophils; neutrophils, 0.573 μM, one donor, triplicate, ± SD): 5.55 ± 1.71

CXCL2: chemokine
Repellent Index (Neutrophils; [2]): 1.6

Concanavalin A
Migratory Response (B-cell): chemorepulsion
Migratory Response (Monocyte; [7]): chemorepulsion

Eotaxin: chemokine
Migratory Response (B-cell): chemorepulsion

Galectin-1: carbohydrate binding protein (galectin), full-length, purchased; accession P09382
Repellent Index (Neutrophils; [2]): 2.3
Repellent Index (Neutrophils; [3]): 0.80 ± 0.08
Repellent Index (Neutrophils; [4]): 0.96 ± 0.22
Repellent Index (Neutrophils; [5]): 1.05 ± 0.14
Repellent Index (Neutrophils; [6]): 3.70 ± 0.29
Migratory Response [1]: chemorepulsion
Migratory Response (Monocyte; [7]): chemorepulsion

Galectin-7: full-length galectin protein, purchased
Migratory Response (B-cell): chemorepulsion

HSP40 Human: heat shock protein; accession BAA08495
Repellent Index (Neutrophils; [2]): 1.4
Migratory Response [1]: chemorepulsion
Migratory Response (Monocyte; [7]): chemorepulsion

Lipid A Diphos [reference compound]
Migratory Response [1]: chemorepulsion

MCP-4: chemokine
Migratory Response (B-cell): chemorepulsion
Migratory Response (Monocyte; [7]): chemorepulsion

N-acetylmuramyl (MDP) [reference compound]
Migratory Response [1]: chemorepulsion
Migratory Response (Monocyte): chemorepulsion

Tropomyosin
Repellent Index (Neutrophils; [2]): 1.7
Repellent Index (Neutrophils; [3]): 2.57 ± 0.73
Repellent Index (Neutrophils; [4]): 2.26 ± 0.86
Repellent Index (Neutrophils; [5]): 2.23 ± 0.68
Repellent Index (Neutrophils; [6]): 1.67 ± 0.16

B1: MDC: chemokine (protein, UniProt O00626 25-93, looked up)
C-C motif chemokine 22: GPYGANMEDSVCCRDYVRYRLPLRVVKHFYWTSDSCPRPGVVLLTFRDKEICADPRVPWVKMILNKLSQ
Migratory Response (B-cell): chemorepulsion

B2: Leukotactin-1: chemokine (protein, UniProt Q16663 22-113, looked up)
C-C motif chemokine 15: QFTNDAETELMMSKLPLENPVVLNSFHFAADCCTSYISQSIPCSLMKSYFETSSECSKPGVIFLTKKGRQVCAKPSGPGVQDCMKKLKPYSI
Migratory Response (B-cell): chemorepulsion

B3: HCC-1: chemokine (protein, UniProt Q16627 20-93, looked up)
C-C motif chemokine 14: TKTESSSRGPYHPSECCFTYTTYKIPRQRIMDYYETNSQCSKPGIVFITKRGHSVCTNPSDKWVQDYIKDMKEN
Migratory Response (B-cell): chemorepulsion

B4: Fractalkine: chemokine (protein, UniProt P78423 25-397, looked up)
Fractalkine: QHHGVTKCNITCSKMTSKIPVALLIHYQQNQASCGKRAIILETRQHRLFCADPKEQWVKDAMQHLDRQAAALTRNGGTFEKQIGEVKPRTTPAAGGMDESVVLEPEATGESSSLEPTPSSQEAQRALGTSPELPTGVTGSSGTRLPPTPKAQDGGPVGTELFRVPPVSTAATWQSSAPHQPGPSLWAEAKTSEAPSTQDPSTQASTASSPAPEENAPSEGQRVWGQGQSPRPENSLEREEMGPVPAHTDAFQDWGPGSMAHVSVVPVSSEGTPSREPVASGSWTPKAEEPIHATMDPQRLGVLITPVPDAQAATRRQAVGLLAFLGLLFCLGVAMFTYQSLQGCPRKMAGEMAEGLRYIPRSCGSNSYVLVPV
Migratory Response (B-cell): chemorepulsion
Migratory Response (Monocyte; [7]): chemorepulsion

B5: HSP32 Rat: heat shock protein; accession P06762/AAH91164 (protein, UniProt P06762 1-289, looked up)
Heme oxygenase 1: MERPQLDSMSQDLSEALKEATKEVHIRAENSEFMRNFQKGQVSREGFKLVMASLYHIYTALEEEIERNKQNPVYAPLYFPEELHRRAALEQDMAFWYGPHWQEAIPYTPATQHYVKRLHEVGGTHPELLVAHAYTRYLGDLSGGQVLKKIAQKAMALPSSGEGLAFFTFPSIDNPTKFKQLYRARMNTLEMTPEVKHRVTEEAKTAFLLNIELFEELQALLTEEHKDQSPSQTEFLRQRPASLVQDTTSAETPRGKSQISTSSSQTPLLRWVLTLSFLLATVAVGIYAM
Repellent Index (Neutrophils; [2]): 1.8
Migratory Response [1]: chemorepulsion

B6: Eotaxin-2: chemokine (protein, UniProt O00175 27-119, looked up)
C-C motif chemokine 24: VVIPSPCCMFFVSKRIPENRVVSYQLSSRSTCLKAGVIFTTKKGQQFCGDPKQEWVQRYMKNLDAKQKKASPRARAVAVKGPVQRYPGNQTTC
Migratory Response (B-cell): chemorepulsion
Migratory Response (Monocyte; [7]): chemorepulsion

B7: MIP-1 beta: chemokine (protein, UniProt P13236 24-92, looked up)
C-C motif chemokine 4: APMGSDPPTACCFSYTARKLPRNFVVDYYETSSLCSQPAVVFQTKRSKQVCADPSESWVQEYVYDLELN
Migratory Response (B-cell): chemorepulsion
Migratory Response (Monocyte; [7]): chemorepulsion

B8: TARC: chemokine (protein, UniProt Q92583 24-94, looked up)
C-C motif chemokine 17: ARGTNVGRECCLEYFKGAIPLRKLKTWYQTSEDCSRDAIVFVTVQGRAICSDPNNKRVKNAVKYLQSLERS
Migratory Response (B-cell): chemorepulsion

B9: Eotaxin-3: chemokine (protein, UniProt Q9Y258 24-94, looked up)
C-C motif chemokine 26: TRGSDISKTCCFQYSHKPLPWTWVRSYEFTSNSCSQRAVIFTTKRGKKVCTHPRKKWVQKYISLLKTPKQL
Migratory Response (B-cell): chemorepulsion
Migratory Response (Monocyte; [7]): chemorepulsion

B10: RANTES: chemokine (protein, UniProt P13501 24-91, looked up)
C-C motif chemokine 5: SPYSSDTTPCCFAYIARPLPRAHIKEYFYTSGKCSNPAVVFVTRKNRQVCANPEKKWVREYINSLEMS
Migratory Response (B-cell): chemorepulsion
Migratory Response (Monocyte; [7]): chemorepulsion

B11: SLC: chemokine (protein, UniProt O00585 24-134, looked up)
C-C motif chemokine 21: SDGGAQDCCLKYSQRKIPAKVVRSYRKQEPSLGCSIPAILFLPRKRSQAELCADPKELWVQQLMQHLDKTPSPQKPAQGCRKDRGASKTGKKGKGSKGCKRTERSQTPKGP
Migratory Response (Monocyte; [7]): chemorepulsion
